From patent US6673783B2, “Fusidic acid derivatives” (Leo Pharmaceutical Products Ltd. A/S, priority 2001, dated 2004)
Values after ≈ are worked out from the molar mass of the structure shown.

Experiments:
[1] = system: Str. salvarius LEO-ID EG7; assay: MIC, agar diffusion method, Str. salvarius LEO-ID EG7; format: cell-based; conditions: for MIC: read-out: MIC value (concentration in μg/ml required for 90% inhibition)
Description: (§1) In vitro investigations have evidenced high potency of compounds of the invention against several bacteria including Staphylococci, Streptococci, Corynebacteriae, Mycobacteriae and Neisseriae. […] The potency of new fusidic acid analogues are estimated by comparing the inhibition of growth of different microorganisms produced by known concentrations of the analogue to be examined and a reference like fusidic acid. The microbiological assay set up is in agreement with the European Pharmacopoeia 3rd edition (1997). It is an agar diffusion method where the same volume of the tested solution is added to cavities in agar. The inhibition zones are function of the concentration of the fusidic acid analogue used. All assays are run with fusidic acid as reference substance. [drawing 7]

Str.mitis Leo id: EG5 = assay: MIC, agar diffusion method, Str.mitis Leo id: EG5; format: cell-based; conditions: for MIC: Streptococcus mitis, read-out: MIC value (concentration in μg/ml required for 90% inhibition)
Description: as §1

S. epidermidis ATCC12228 = assay: MIC, agar diffusion method, S. epidermidis ATCC12228; format: cell-based; conditions: for MIC: Staphylococcus epidermidis, read-out: MIC value (concentration in μg/ml required for 90% inhibition)
Description: as §1

S. aureus ATCC 29213 = assay: MIC, agar diffusion method, S. aureus ATCC 29213; format: cell-based; conditions: for MIC: Staphylococcus aureus, ATCC29213, read-out: MIC value (concentration in μg/ml required for 90% inhibition)
Description: as §1

S. aureus CJ232 = assay: MIC, agar diffusion method, S. aureus CJ232 (MRSA); format: cell-based; conditions: for MIC: Staphylococcus aureus, read-out: MIC value (concentration in μg/ml required for 90% inhibition)
Description: as §1

Str. sp. ATCC12449 = assay: MIC, agar diffusion method, Str. sp. ATCC12449; format: cell-based; conditions: for MIC: read-out: MIC value (concentration in μg/ml required for 90% inhibition)
Description: as §1

[2] = system: Str. faecium Leo-id: E119(P); assay: MIC, agar diffusion method, Str. faecium Leo-id: E119(P) (penicillin resistant); format: cell-based; conditions: for MIC: Enterococcus faecium, read-out: MIC value (concentration in μg/ml required for 90% inhibition)
Description: as §1

[3] = system: Str. pyrogenes Leo id: EC5; assay: MIC, agar diffusion method, Str. pyrogenes Leo id: EC5; format: cell-based; conditions: for MIC: read-out: MIC value (concentration in μg/ml required for 90% inhibition)
Description: as §1

S. aureus ATC6538P = assay: MIC, agar diffusion method, S. aureus ATC6538P; format: cell-based; conditions: for MIC: Staphylococcus aureus, read-out: MIC value (concentration in μg/ml required for 90% inhibition)
Description: as §1

Str. sp. Leo id: EF6 = assay: MIC, agar diffusion method, Str. sp. Leo id: EF6; format: cell-based; conditions: for MIC: read-out: MIC value (concentration in μg/ml required for 90% inhibition)
Description: as §1

[4] = system: several bacteria including Staphylococci, Streptococci, Corynebacteriae, Mycobacteriae and Neisseriae; assay: In vitro antibacterial activity, agar diffusion with fusidic acid as reference; format: cell-based; conditions: biological tests, see Table 1
Description: as §1

S. aureus CJ234 (R) = assay: MIC, agar diffusion method, S. aureus CJ234 (R) (MRSA and Rifampicin resistant); format: cell-based; conditions: for MIC: Staphylococcus aureus, read-out: MIC value (concentration in μg/ml required for 90% inhibition)
Description: as §1

Str. pyrogenes NCTC8304 = assay: MIC, agar diffusion method, Str. pyrogenes NCTC8304; format: cell-based; conditions: for MIC: read-out: MIC value (concentration in μg/ml required for 90% inhibition)
Description: as §1

bacteria = conditions: reduction of C-24/C-25 and C-17/C-20 double bonds of fusidic acid; von Daehne et al. 1979; cited from earlier work

Molecule | MIC value (concentration in μg/ml required for 90% inhibition) [1] | MIC value (concentration in μg/ml required for 90% inhibition) (Str.mitis Leo id: EG5) | MIC value (concentration in μg/ml required for 90% inhibition) (S. epidermidis ATCC12228) | MIC value (concentration in μg/ml required for 90% inhibition) (S. aureus ATCC 29213) | MIC value (concentration in μg/ml required for 90% inhibition) (S. aureus CJ232) | MIC value (concentration in μg/ml required for 90% inhibition) (Str. sp. ATCC12449) | MIC value (concentration in μg/ml required for 90% inhibition) [2] | MIC value (concentration in μg/ml required for 90% inhibition) [3] | MIC value (concentration in μg/ml required for 90% inhibition) (S. aureus ATC6538P) | MIC value (concentration in μg/ml required for 90% inhibition) (Str. sp. Leo id: EF6) | MIC value (concentration in μg/ml required for 90% inhibition) (Str. pyrogenes NCTC8304) | also measured
CC(=O)O[C@H]1C[C@@]2(C)C(CC(O)[C@@H]3C2(C)CCC2C(C)C(O)CC[C@@]23C)C12CC2(CCC=C(C)C)C(=O)O (stereo partly drawn) [Compound 101, 17S,20S-Methanofusidic acid] |  |  |  |  |  |  |  |  |  |  |  | MIC [1]: 4 µg/mL (≈ 7.54 µM); MIC (Str.mitis Leo id: EG5): 4 µg/mL (≈ 7.54 µM); MIC (S. epidermidis ATCC12228): 0.125 µg/mL (≈ 0.236 µM); MIC (S. aureus ATCC 29213): 0.125 µg/mL (≈ 0.236 µM); MIC (S. aureus CJ232): 0.125 µg/mL (≈ 0.236 µM); MIC (Str. sp. ATCC12449): 16 µg/mL (≈ 30.1 µM); MIC [2]: 0.125 µg/mL (≈ 0.236 µM); MIC [3]: 16 µg/mL (≈ 30.1 µM); melting point: 243 to 245 °C; MIC (S. aureus ATC6538P): 0.125 µg/mL (≈ 0.236 µM); MIC (Str. sp. Leo id: EF6): 4 µg/mL (≈ 7.54 µM); antibacterial activity compared to that of fusidic acid (1) [4]: comparable antibacterial activity; MIC (S. aureus CJ234 (R)): 0.004 µg/mL (≈ 0.00754 µM); MIC (Str. pyrogenes NCTC8304): 4 µg/mL (≈ 7.54 µM)
CC(=O)OC1CC2(C)C(CC(O)C3C4(C)CCC(O)C(C)C4CCC32C)C12CC2(CCCC(C)C)C(=O)O (stereo not drawn) [Compound 102, 24,25-Dihydro-17S,20S-methanofusidic acid] | 16 µg/mL | 64 µg/mL | 0.125 µg/mL | 0.25 µg/mL | 0.25 µg/mL | 64 µg/mL | 1 µg/mL | 64 µg/mL | 0.125 µg/mL | 64 µg/mL | 16 µg/mL | MIC value (concentration in μg/ml required for 90% inhibition) (S. aureus CJ234 (R)): 0.25 µg/mL
CC(=O)OC1CC2(C)C(CC(O)C3C4(C)CCC(=O)C(C)C4CCC32C)C12CC2(CCC=C(C)C)C(=O)O (stereo not drawn) [Compound 104, 3-Dehydro-17S,20S-methanofusidic acid] | 64 µg/mL | 64 µg/mL | 0.125 µg/mL | 0.125 µg/mL | 1.0 µg/mL | 64 µg/mL | 0.25 µg/mL | 64 µg/mL | 0.125 µg/mL | 64 µg/mL | 16 µg/mL | 
CC(C)=CCCC1(C(=O)O)CC12C(OC(=O)C(C)C)CC1(C)C2CC(O)C2C3(C)CCC(O)C(C)C3CCC21C (stereo not drawn) [Compound 107, 16-Deacetoxy-16β-(isopropionyloxy)-17S,20S-methanofusidic acid] | 64 µg/mL | 16 µg/mL | 0.25 µg/mL | 1.0 µg/mL | 1.0 µg/mL | 64 µg/mL | 4 µg/mL | 64 µg/mL | 0.25 µg/mL | 16 µg/mL | 64 µg/mL | 
CCOC1CC2(C)C(CC(O)C3C4(C)CCC(O)C(C)C4CCC32C)C12CC2(CCC=C(C)C)C(=O)O (stereo not drawn) [Compound 110, 16-Deacetoxy-16β-ethoxy-17S,20S-methanofusidic acid] | 64 µg/mL | 64 µg/mL | 0.125 µg/mL | 0.125 µg/mL | 1.0 µg/mL | 64 µg/mL | 0.25 µg/mL | 64 µg/mL | 0.125 µg/mL | 64 µg/mL | 4 µg/mL | MIC value (concentration in μg/ml required for 90% inhibition) (S. aureus CJ234 (R)): 0.004 µg/mL
CC(=O)O[C@H]1C[C@@]2(C)C(CC(O)[C@@H]3C2(C)CCC2C(C)C(O)CC[C@@]23C)/C1=C(\CCC=C(C)C)C(=O)O (stereo partly shown) [Fusidic acid (1), fusidic acid] |  |  |  |  |  |  |  |  |  |  |  | MIC [1]: 4 µg/mL (≈ 7.74 µM); MIC (Str.mitis Leo id: EG5): 4 µg/mL (≈ 7.74 µM); MIC (S. epidermidis ATCC12228): 0.125 µg/mL (≈ 0.242 µM); MIC (S. aureus ATCC 29213): 0.125 µg/mL (≈ 0.242 µM); MIC (S. aureus CJ232): 0.125 µg/mL (≈ 0.242 µM); MIC (Str. sp. ATCC12449): 4 µg/mL (≈ 7.74 µM); MIC [2]: 0.125 µg/mL (≈ 0.242 µM); MIC [3]: 4 µg/mL (≈ 7.74 µM); MIC (S. aureus ATC6538P): 0.125 µg/mL (≈ 0.242 µM); MIC (Str. sp. Leo id: EF6): 4 µg/mL (≈ 7.74 µM); MIC (S. aureus CJ234 (R)): 0.004 µg/mL (≈ 0.00774 µM); MIC (Str. pyrogenes NCTC8304): 4 µg/mL (≈ 7.74 µM)
tetrahydrofusidic acid |  |  |  |  |  |  |  |  |  |  |  | antibacterial activity (bacteria): almost complete loss of activity
